Reference: patent publication US10421782B2, “Cyclic cationic peptides with antimicrobial activity” (I.C.F. S.R.L., priority 2012, dated 2019)
Converted amounts (≈) assume the structure as drawn. “And” between values parts separate entries of the source, which are not always exact repeats. Equal values may be shown once. Read-outs that look alike come from different tables or passages of the source. Where a SMILES comes first, the peptide text is derived from it. Bridges are numbered along the chain shown (N, C = ends).

Columns and labels:
[1] = test system: E. coli ML-35pYC; experiment: Membrane permeabilization assay (CENTA / ONPG kinetics); format: cell-based, Escherichia coli; settings: peptide 12.5 μg/ml, logistic 4-parameter fit, read up to 240 min; for Inflexion point CENTA: CENTA substrate (periplasmic beta-lactamase)
Experimental: The strain ML-35pYC of E. coli was used to assay the kinetics of membrane permeabilization performed by the peptides of the invention. This bacterial strain expresses resistance to ampicillin, constitutive expression of cytoplasmic beta-galactosidase, and is engineered with a plasmid for the synthesis of a periplasmic beta-lactamase. Sixty microliters (60 μl) of bacterial suspension of strain ML-35pYC of E. coli were added to 60 μl of a 15 mM solution of ONPG or 1.5 mM of CENTA in phosphate buffer. Subsequently, 120 μl of the test peptides were added to obtain a final concentration of 12.5 μg/ml. The kinetics of the reaction was evaluated by recording the value of absorbance at […] and 405 nm, for ONPG and CENTA respectively, every 10 min up to a maximum of 240 min.
By “fitting” the experimental points with the logistic 4-parameter curve, it was possible to determine the inflexion point, that is the point where the curve changes direction, relative to the 3 test peptides. No inflexion point was observed during the assay with CENTA (inflexion point higher than 500 min).

[2] = test system: Escherichia coli ATCC 25922; format: cell-based; settings: for LD90 E. coli ATCC 25922: 2 h contact at 37° C., CFU count after 24 h
Experimental: (§1) For each bacterial strain, 3-5 morphologically similar colonies were drawn from fresh cultures, inoculated in Brain Hearth Infusion broth liquid medium and incubated at the temperature of 37° C. under shaking at 225 r.p.m. for 3-4 h. Subsequently, the bacterial suspension was centrifuged at 1000 g for 20 min and the thus obtained pellet was resuspended in phosphate buffer 10 mM. Turbidity was measured in a spectrophotometer with absorbance at 600 nm, equivalent in the range 0.08-0.13 to a concentration of about 10^8 CFU/ml. The bacterial suspension was diluted 1:100 in phosphate buffer 10 mM, and within 30 min 50 microliters of such bacterial suspension (10^6 CFU/ml) were inoculated in each well of the microtiter plate, to obtain a final bacterial concentration of about 5×10^5 CFU/ml.
(§2) Several peptides were tested for their ability to inhibit bacterial growth in liquid culture. Fifty microliters of peptide at a concentration comprised between about 0.2 mM and 50 mM were added in 96-well U-bottom plates containing liquid growth medium and one of the following bacteria: Escherichia coli ATCC 25922, P. aeruginosa ATCC 27853, Stenotrophomonas maltophilia ATCC 13637. After 2 hour incubation at 37° C., bacteria were transferred on a solid medium. As a growth control, bacterial cultures were cultured in the absence of peptides.
(§3) The bacterial suspension was put in contact for two hours with different concentrations of the peptide at the temperature of 37° C. After incubation, 20 μl were drawn from the wells of each dilution and seeded on solid medium, agar McConkey. The inoculum was evenly distributed on the agarized medium by means of a sterile disposable loop. After incubation for 24 h at the temperature of 37° C., counting of the bacterial colonies (CFU) was performed.

[3] = test system: Pseudomonas aeruginosa ATCC 27853; format: cell-based; settings: for LD90 P. aeruginosa ATCC 27853: 2 h contact at 37° C., CFU count after 24 h
Experimental: as §1, §2, §3

[4] = test system: Stenotrophomonas maltophilia ATCC 13637; experiment: Broth-microdilution test and subsequent plating on agar, Gram-negative bacteria; format: cell-based; settings: 2 h contact at 37° C., CFU count after 24 h
Experimental: as §1, §2, §3

[5] = test system: S. aureus ATCC 25923; experiment: Broth-microdilution test and subsequent plating on agar, Gram-positive bacteria; format: cell-based, Staphylococcus aureus; settings: meticillin-sensitive, 2 h contact at 37° C., CFU count after 24 h
Experimental: as §1, with “30 min,” for “30 min”
(§4) Several synthetic peptides were tested for their ability to inhibit bacterial growth. Fifty microliters of peptide at a concentration comprised between about 0.2 mM and about 50 mM were added to 96-well U-bottom plates containing phosphate buffer and one of the following bacteria: S. aureus ATCC 25923, meticillin-resistant S. aureus ATCC 43300. After 2 hour incubation at 37° C., bacteria were transferred on a solid medium. As a control, the bacterial cultures were cultured in the absence of peptide.
as §3, with “medium, Columbia” for “medium,”, “agar supplemented with 5% bovine red blood cells for Gram-positive bacteria.” for “agar McConkey.”, “24 hours” for “24 h”

[6] = test system: meticillin-resistant S. aureus ATCC 43300; experiment: as above; format: cell-based, Staphylococcus aureus; settings: 2 h contact at 37° C., CFU count after 24 h
Experimental: as §1, with “30 min,” for “30 min”
as §4
as §3, with “medium, Columbia” for “medium,”, “agar supplemented with 5% bovine red blood cells for Gram-positive bacteria.” for “agar McConkey.”, “24 hours” for “24 h”

[7] = test system: Candida albicans ATCC 10231; experiment: Broth-microdilution test and subsequent plating on agar, fungi (yeasts); format: cell-based; settings: 2 h contact at 37° C., CFU count on agar Sabouraud
Experimental: (§5) The inoculum was set up by culturing Candida albicans ATCC 10231 and Malassezia pachydermatis ATCC 14522 in Czapek-Dox broth medium (DIFCO) for 48-72 h. On the assay day, the fungal culture was centrifuged at 1700×g for 15 min, the pellet was resuspended in phosphate buffer and submitted to shaking by the use of an electric vortex to disperse the fungal cell aggregates. The suspension was diluted until an optical density equal to an opacity of 0.5 on the McFarland turbidimetric scale was reached, which contains approximately 1-5×10^6 cell/ml (Branda J. A., Krantz A. Effectc of yeast on automated cell counting. Am J Clin Pathol., 2006:126, 248-254).
(§6) The peptides were tested for their ability to inhibit fungal growth. Fifty microliters of peptide at a concentration comprised between about 0.2 mM and about 50 mM were added in 96-well U-bottom plates containing phosphate buffer and one of the following fungi: Candida albicans ATCC 10231 and Malassezia pachydermatis ATCC 14522. After 2 h incubation at 37° C., fungi were transferred on the solid medium agar Sabouraud. As a control, fungal cultures were cultured in the absence of peptide.
(§7) The fungal suspension was put in contact for two hours with different concentrations of the peptide at the temperature of 37° C. After incubation, 20 μl were drawn from the wells of each dilution and seeded on the solid medium agar Sabouraud. The inoculum was evenly distributed on the agarized medium by means of a sterile disposable loop. After incubation for 24 h at the temperature of 37° C., counting of the fungal colonies (CFU) was performed.

[8] = test system: Malassezia pachydermatis ATCC 14522; experiment: as above; format: cell-based; settings: 2 h contact at 37° C., CFU count on agar Sabouraud
Experimental: as §5, §6, §7

[9] = test system: Jurkat cells; experiment: Cytotoxicity of peptides against Jurkat cells (Trypan Blue); format: cell-based; settings: 20 μM
Experimental: Cytotoxicity of the peptides against T lymphocytes, for example Jurkat cells, was determined seeding the cells at a density of about 5*10^5 cells/ml in the presence and in the absence of peptides and incubating overnight at 37° C. in thermostat under CO2. As a negative cytotoxicity control, a medium lacking the test peptide was used, while as a positive cytotoxicity control, a medium containing 0.2% Triton X-100 was used, to completely lyse the cells. The cell viability was subsequently determined by adding 20 μl of Trypan Blue in each well, and by incubation of the cells for additional 5 min a 37° C. MCC10 value was calculated as the minimum peptide concentration necessary to induce 10% of cytotoxicity.

CC[C@H](C)[C@@H]1NC(=O)[C@H](Cc2ccccc2)NC(=O)[C@H](CCCCN)NC(=O)[C@H](C(C)C)NC(=O)CNC(=O)[C@H](CCCNC(=N)N)NC(=O)[C@H](Cc2c[nH]c3ccccc23)NC(=O)[C@H](CCC(N)=O)NC(=O)[C@H](Cc2c[nH]c3ccccc23)NC(=O)[C@H](CCCCN)NC(=O)[C@H](CCCNC(=N)N)NC(=O)[C@@H](NC(=O)[C@H](Cc2c[nH]c3ccccc23)NC(=O)[C@@H](N)CCCCN)CSSC[C@@H](C(=O)N[C@H](C(=O)O)C(C)C)NC(=O)[C@H](CCCCN)NC1=O (relative stereo) [Peptide P126, LYS*TRP*CYS*ARG*LYS*TRP*GLN*TRP*ARG*GLY*VAL*LYS*PHE*ILE*LYS*CYS*VAL]
Inflexion point CENTA [1]: >500 min | LD90 E. coli ATCC 25922 [2]: 0.91 µM | LD90 E. coli ATCC 25922 ([2]; listed as 126): 1.86 μg/ml and 0.91 μM | MBC E. coli ATCC 25922 [2]: 12.5 µg/mL (≈ 5.56 µM) | LD90 P. aeruginosa ATCC 27853 [3]: 0.20 µM | LD90 P. aeruginosa ATCC 27853 ([3]; listed as 126): 0.20 μM and 0.4 μg/ml | MBC P. aeruginosa ATCC 27853 [3]: 4.53 µg/mL (≈ 2.01 µM) | LD90 S. maltophilia ATCC 13637 [4]: 6.65 µM | LD90 S. aureus ATCC 25923 [5]: 4.68 µM | LD90 S. aureus ATCC 25923 ([5]; listed as 126): 4.68 μM and 9.54 μg/ml | LD90 MRSA ATCC 43300 [6]: >70 µM | LD90 MRSA ATCC 43300 ([6]; listed as 126): about 71 μM and ~100 μg/ml | LD90 Candida albicans [7]: 1.98 µM | LD90 Candida albicans ([7]; listed as 126): about 2 μM | LD90 Malassezia pachydermatis [8]: 0.75 µM

CC[C@H](C)[C@@H]1NC(=O)CNC(=O)[C@H](CCCNC(=N)N)NC(=O)[C@H](Cc2ccc(O)cc2)NC(=O)[C@@H]2CSSC[C@H](NC1=O)C(=O)N[C@@H](Cc1ccc(O)cc1)C(=O)N[C@@H](CCCNC(=N)N)C(=O)N[C@@H](CCCNC(=N)N)C(=O)N[C@H](C(=O)N[C@@H](CCCNC(=N)N)C(N)=O)CSSC[C@H](NC(=O)[C@H](Cc1c[nH]c3ccccc13)NC(=O)[C@@H](N)CCCCN)C(=O)N[C@@H](Cc1ccccc1)C(=O)N[C@@H](CCCNC(=N)N)C(=O)N[C@@H](C(C)C)C(=O)N2 [tachyplesin-1] (H-KWCFRVCYRGICYRRCR-NH2; disulfide 3-16, 7-12)
death of the cells (Jurkat) [9]: 10%

CC(C)C[C@@H]1NC(=O)CNC(=O)[C@H](CCCNC(=N)N)NC(=O)[C@H](C(C)C)NC(=O)[C@H](CCCCN)NC(=O)[C@H](C(C)C)NC(=O)[C@H](CC(C)C)NC(=O)[C@H](C)NC(=O)[C@@H](NC(=O)CNC(=O)[C@@H](N)CCCCN)CSSC[C@@H](C(=O)N[C@@H](CCCCN)C(=O)O)NC(=O)[C@H](C(C)C)NC(=O)[C@H](CCCCN)NC(=O)[C@H](CC(C)C)NC(=O)[C@H]([C@@H](C)O)NC1=O (relative stereo) [Peptide P72, LYS*GLY*CYS*ALA*LEU*VAL*LYS*VAL*ARG*GLY*LEU*THR*LEU*LYS*VAL*CYS*LYS]
Inflexion point CENTA [1]: >500 min | Inflexion point ONPG ([1]; ONPG substrate (cytoplasmic beta-galactosidase)): 7.86 min | LD90 E. coli ATCC 25922 [2]: 0.86 µM | LD90 E. coli ATCC 25922 ([2]; listed as 72): 1.69 μg/ml and 0.86 μM | MBC E. coli ATCC 25922 [2]: 9.68 µg/mL (≈ 5.34 µM) | LD90 P. aeruginosa ATCC 27853 [3]: 0.87 µM | LD90 P. aeruginosa ATCC 27853 ([3]; listed as 72): 0.87 μM and 1.61 μg/ml | MBC P. aeruginosa ATCC 27853 [3]: 2.84 µg/mL (≈ 1.57 µM) | LD90 S. maltophilia ATCC 13637 [4]: 1.88 µM | LD90 S. maltophilia ATCC 13637 ([4]; listed as 72): 1.88 μM and 3.42 μg/ml | LD90 S. aureus ATCC 25923 [5]: 3.39 µM | LD90 S. aureus ATCC 25923 ([5]; listed as 72): 3.39 μM and 6.16 μg/ml | LD90 MRSA ATCC 43300 [6]: 0.90 µM | LD90 MRSA ATCC 43300 ([6]; listed as 72): 0.90 μM and 1.65 μg/ml | LD90 Candida albicans [7]: 1.03 µM | LD90 Candida albicans ([7]; listed as 72): 1.03 μM and 1.87 μg/ml | LD90 Malassezia pachydermatis [8]: 0.68 µM | LD90 Malassezia pachydermatis ([8]; listed as 72): 0.68 μM and 1.24 μg/ml
